Article PMC10177510, “A Multicenter, Open-Label, Phase I/II Study of FN-1501 in Patients with Advanced Solid Tumors” (Cancers, 2023)

System: advanced solid tumors
Assay: Anti-tumor activity in patients (RECIST best response, PFS, OS)
Assay type: in vivo, human
Experimental: Among 64 pts enrolled in the trial, 16 failed screening and 48 (75%) were treated with FN-1501 at one of the dose levels tested. Eligible pts were ≥18 years of age with (a) relapsed or refractory AML that had exhausted or was ineligible for therapeutic options, or with ≥5% blasts in the bone marrow according to World Health Organization (WHO) 2016 criteria; or (b) solid tumors evaluable per RECIST v1.1 that had exhausted (or were ineligible for) therapeutic options likely to convey clinical benefit. Other inclusion criteria included Eastern Cooperative Oncology Group (ECOG) performance status (PS) of <2 and life expectancy ≥3 months. Pts with a clinically controlled central nervous system (CNS) tumor or metastasis and adequate organ function were eligible to participate. Ongoing use of strong CYP3A inhibitors or inducers was exclusionary unless participants were willing and able to change to use of an equivalent medication without this profile. Other exclusion criteria included current or recent major surgical procedures, anticancer therapy (chemotherapy, immunotherapy), biologic, live virus vaccine, or investigational therapy within 21 days prior to initiation of the study treatment. For patients in the AML cohort, acute promyelocytic leukemia (APML), chronic myelogenous leukemia in blast crisis (BCR-ABL), or active CNS leukemia were exclusionary.
Descriptive statistics were used for all safety, PK, and efficacy parameters. Data were summarized using descriptive statistics (number of pts, mean, median, standard deviation, minimum, and maximum) for continuous variables and using frequencies and percentages for discrete variables. Time-to-event variables were summarized using Kaplan–Meier methods and figures for the estimated median time.

Structure (SMILES): CN1CCN(Cc2ccc(NC(=O)c3[nH]ncc3Nc3ncnc4[nH]ccc34)cc2)CC1 [FN-1501]
- Progressive Disease, best RECIST response, n (%) (40 mg/day, N = 4, ITT): 1 (25)
- Stable Disease, best RECIST response, n (%) (40 mg/day, N = 4, ITT): 1 (25)
- Complete Response, best RECIST response, n (%) (54 mg/day, N = 3, ITT): 0
- DCR (54 mg/day, N = 3, ITT): 0.0%
- Landmark Progression Free Survival Rate at 3 months (Table S6, Overall Survival) (54 mg/day, N = 3, ITT): 66.7%
- Landmark Progression Free Survival Rate at 6 months (Table S6, Overall Survival) (54 mg/day, N = 3, ITT): 0.0%
- Landmark Progression Free Survival Rate at 9 months (Table S6, Overall Survival) (54 mg/day, N = 3, ITT): 0.0%
- Landmark Progression Free Survival Rate at 12 months (Table S6, Overall Survival) (54 mg/day, N = 3, ITT): 0.0%
- Median overall survival (54 mg/day, N = 3, ITT): 3.2 months
- Median progression-free survival (54 mg/day, N = 3, ITT): 1.4 months
- ORR (54 mg/day, N = 3, ITT): 0.0%
- Partial Response, best RECIST response, n (%) (54 mg/day, N = 3, ITT): 0
- Progression Free Survival Rate at 3 months (54 mg/day, N = 3, ITT): 0.0%
- Progression Free Survival Rate at 6 months (54 mg/day, N = 3, ITT): 0.0%
- Progression Free Survival Rate at 9 months (54 mg/day, N = 3, ITT): 0.0%
- Progression Free Survival Rate at 12 months (54 mg/day, N = 3, ITT): 0.0%
- Progressive Disease, best RECIST response, n (%) (54 mg/day, N = 3, ITT): 2
- Stable Disease, best RECIST response, n (%) (54 mg/day, N = 3, ITT): 0
- Complete Response, best RECIST response, n (%) (72 mg/day, N = 3, ITT): 0
- DCR (72 mg/day, N = 3, ITT): 0.0%
- Median progression-free survival (72 mg/day, N = 3, ITT): 1.3 months
- ORR (72 mg/day, N = 3, ITT): 0.0%
- Partial Response, best RECIST response, n (%) (72 mg/day, N = 3, ITT): 0
- Progression Free Survival Rate at 3 months (72 mg/day, N = 3, ITT): 0.0%
- Progression Free Survival Rate at 6 months (72 mg/day, N = 3, ITT): 0.0%
- Progression Free Survival Rate at 9 months (72 mg/day, N = 3, ITT): 0.0%
- Progression Free Survival Rate at 12 months (72 mg/day, N = 3, ITT): 0.0%
- Progressive Disease, best RECIST response, n (%) (72 mg/day, N = 3, ITT): 3
- Stable Disease, best RECIST response, n (%) (72 mg/day, N = 3, ITT): 0
- Complete Response, best RECIST response, n (%) (96 mg/day, N = 5, ITT): 0
- DCR (96 mg/day, N = 5, ITT): 40.0%
- Landmark Progression Free Survival Rate at 3 months (Table S6, Overall Survival) (96 mg/day, N = 5, ITT): 75.0%
- Landmark Progression Free Survival Rate at 6 months (Table S6, Overall Survival) (96 mg/day, N = 5, ITT): 37.5%
- Landmark Progression Free Survival Rate at 9 months (Table S6, Overall Survival) (96 mg/day, N = 5, ITT): 37.5%
- Landmark Progression Free Survival Rate at 12 months (Table S6, Overall Survival) (96 mg/day, N = 5, ITT): 37.5%
- Median overall survival (96 mg/day, N = 5, ITT): 3.1 months
- Median progression-free survival (96 mg/day, N = 5, ITT): 2.7 months
- ORR (96 mg/day, N = 5, ITT): 0.0%
- Partial Response, best RECIST response, n (%) (96 mg/day, N = 5, ITT): 0
- Progression Free Survival Rate at 3 months (96 mg/day, N = 5, ITT): 37.5%
- Progression Free Survival Rate at 6 months (96 mg/day, N = 5, ITT): 0.0%
- Progression Free Survival Rate at 9 months (96 mg/day, N = 5, ITT): 0.0%
- Progression Free Survival Rate at 12 months (96 mg/day, N = 5, ITT): 0.0%
- Progressive Disease, best RECIST response, n (%) (96 mg/day, N = 5, ITT): 0
- Stable Disease, best RECIST response, n (%) (96 mg/day, N = 5, ITT): 2 (40)
- Complete Response, best RECIST response, n (%) (128 mg/day, N = 3, ITT): 0
- Median progression-free survival (128 mg/day, N = 3, ITT): 3.1 months
- ORR (128 mg/day, N = 3, ITT): 0.0%
- Partial Response, best RECIST response, n (%) (128 mg/day, N = 3, ITT): 0
- Progression Free Survival Rate at 3 months (128 mg/day, N = 3, ITT): 66.7%
- Progression Free Survival Rate at 6 months (128 mg/day, N = 3, ITT): 0.0%
- Progression Free Survival Rate at 9 months (128 mg/day, N = 3, ITT): 0.0%
- Progression Free Survival Rate at 12 months (128 mg/day, N = 3, ITT): 0.0%
- Progressive Disease, best RECIST response, n (%) (128 mg/day, N = 3, ITT): 1 (33)
- Stable Disease, best RECIST response, n (%) (128 mg/day, N = 3, ITT): 1 (33)
- Complete Response, best RECIST response, n (%) (170 mg/day, N = 4, ITT): 0
- DCR (170 mg/day, N = 4, ITT): 50.0%
- Median progression-free survival (170 mg/day, N = 4, ITT): 2.2 months
- ORR (170 mg/day, N = 4, ITT): 0.0%
- Partial Response, best RECIST response, n (%) (170 mg/day, N = 4, ITT): 0
- Progression Free Survival Rate at 3 months (170 mg/day, N = 4, ITT): 33.3%
- Progression Free Survival Rate at 6 months (170 mg/day, N = 4, ITT): 33.3%
- Progression Free Survival Rate at 9 months (170 mg/day, N = 4, ITT): 33.3%
- Progression Free Survival Rate at 12 months (170 mg/day, N = 4, ITT): 0.0%
- Progressive Disease, best RECIST response, n (%) (170 mg/day, N = 4, ITT): 1 (25)
- Stable Disease, best RECIST response, n (%) (170 mg/day, N = 4, ITT): 2 (50)
- Complete Response, best RECIST response, n (%) (226 mg/day, N = 4, ITT): 0
- DCR (226 mg/day, N = 4, ITT): 0.0%
- Landmark Progression Free Survival Rate at 3 months (Table S6, Overall Survival) (226 mg/day, N = 4, ITT): 66.7%
- Landmark Progression Free Survival Rate at 6 months (Table S6, Overall Survival) (226 mg/day, N = 4, ITT): 66.7%
- Landmark Progression Free Survival Rate at 9 months (Table S6, Overall Survival) (226 mg/day, N = 4, ITT): 66.7%
- Landmark Progression Free Survival Rate at 12 months (Table S6, Overall Survival) (226 mg/day, N = 4, ITT): 66.7%
- Median progression-free survival (226 mg/day, N = 4, ITT): 1.1 months
- ORR (226 mg/day, N = 4, ITT): 0.0%
- Partial Response, best RECIST response, n (%) (226 mg/day, N = 4, ITT): 0
- Progression Free Survival Rate at 3 months (226 mg/day, N = 4, ITT): 0.0%
- Progression Free Survival Rate at 6 months (226 mg/day, N = 4, ITT): 0.0%
- Progression Free Survival Rate at 9 months (226 mg/day, N = 4, ITT): 0.0%
- Progression Free Survival Rate at 12 months (226 mg/day, N = 4, ITT): 0.0%
- Progressive Disease, best RECIST response, n (%) (226 mg/day, N = 4, ITT): 1 (25)
- Stable Disease, best RECIST response, n (%) (226 mg/day, N = 4, ITT): 0
- Duration of partial response (1 patient, 40 mg/day, advanced endometrial cancer): 4.2 months
- Complete Response, best RECIST response, n (%) (Total, N = 48, ITT): 0
- DCR (Total, N = 48, ITT): 33.3%
- Landmark Progression Free Survival Rate at 3 months (Table S6, Overall Survival) (Total, N = 48, ITT): 71.7%
- Median overall survival (Total, N = 48, ITT): 8.2 months
- Median progression-free survival (Total, N = 48, ITT): 1.8 months
- ORR (Total, N = 48, ITT): 2.1%
- Partial Response, best RECIST response, n (%) (Total, N = 48, ITT): 1 (2)
- Progression Free Survival Rate at 3 months (Total, N = 48, ITT): 31.1%
- Progression Free Survival Rate at 6 months (Total, N = 48, ITT): 11.3%
- Progression Free Survival Rate at 9 months (Total, N = 48, ITT): 5.7%
- Progression Free Survival Rate at 12 months (Total, N = 48, ITT): 2.8%
- Progressive Disease, best RECIST response, n (%) (Total, N = 48, ITT): 18
- Stable Disease, best RECIST response, n (%) (Total, N = 48, ITT): 15 (31)
- Patients with progressive disease (PD) as best response by RECIST (all doses): 38%
- Patients with stable disease (SD) as best response by RECIST (all doses): 31%
- Remaining response-evaluable pts with PD (all doses): 67%
